From patent publication US6979684B1, “Pyrrolo[2,1-c][1,4]benzodiazepine-napthalimide conjugates linked through piperazine moiety and process for preparation thereof” (Council of Scientific and Industrial Research, priority 2004, dated 2005)

Columns and labels:
CT-DNA = test: DNA Thermal Denaturation Studies; assay type: binding; conditions: 1:5 [PBD]/[DNA], CT-DNA 100 μM, ligand 20 μM, sodium phosphate buffer pH 7.00, values ±0.1–0.2° C.; for Induced […]Tm ° C. after incubation at 37° C. 0 h: 0 h at 37° C.; for Induced […]Tm ° C. after incubation at 37° C. 18 h: 18 h at 37° C.
Experimental: For CT-DNA alone at pH 7.00±0.01, Tm=69.8° C.±0.01 (mean value from 10 separate determinations), all ΔTm values are ±0.1–0.2° C. For a 1:5 molar ratio of [PBD]/[DNA], where CT-DNA concentration=100 μM and ligand concentration=20 μM in aqueous sodium phosphate buffer [10 mM sodium phosphate+1 mM EDTA, pH 7.00±0.01].

A-549 = test: In vitro cytotoxicity (SRB), percentage growth inhibition, A-549; assay type: cell-based, human; conditions: A-549 (lung), 48 hours
Experimental: (§1) In vitro cytotoxicity against human cancer cell lines: The human cancer cell lines procured from National Cancer Institute, Frederick, U.S.A or National Center for Cell Science; Pune, India. were used in present study. Cells were grown in tissue culture flasks in complete growth medium (RPMI-1640 medium with 2 mM glutamine, 100 μg/ml streptomycin, pH 7.4, sterilized by filtration and supplemented with 10% fetal calf serum and 100 units/ml penicillin before use) at 37° C. in an atmosphere of 5% CO2 and 90% relative humidity in a carbon dioxide incubator. The cells at subconfluent stage were harvested from the flask by treatment with trypsin (0.5% in PBS containing 0.02% EDTA) for determination of cytotoxicity. Cells with viability of more than 98% as determined by trypan blue exclusion were used for assay. The cell suspension of the required cell density were prepared in complete growth medium with gentamycin (50 μg/ml) for determination of cytotoxicity.
(§2) A stock solutions of (2×10^−2 M) of test material were prepared in DMSO. The stock solutions were serially diluted with complete growth medium containing 50 μg/ml of gentamycin to obtain working test solutions of required concentrations.
(§3) In vitro cytotoxicity against human cancer cell lines was determined (Monks, A., Scudiero, D., Skehan, P, Shoemaker R., Paull, K., Vistica, D., Hose, C., Langley, J., Cronise, P., Vaigro-Wolff, A., Gray-Goodrich, M., Campbell, H., Mayo, J and Boyd M. J. Natl. Cancer Inst., 1991, 83, 757–766) using 96-well tissue culture plates. The 100 μl of cell suspension was added to each well of the 96-well tissue culture plate. The cells were incubated for 24 hours. Test materials in complete growth medium (100 μl) were added after 24 hours incubation to the wells containing cell suspension. The plates were further incubated for 48 hours (at 37° C. in an atmosphere of […] 90% relative humidity in a carbon dioxide incubator) after addition of test material and then the cell growth was stopped by gently layering trichloroacetic acid (TCA, 50 μl, 50%) on top of the medium in all the wells. The plates were incubated at 4° C. for one hour to fix the cells attached to the bottom of the wells. The liquid of all the wells was gently pipetted out and discarded. The plates were washed five times with distilled water to remove TCA, growth medium low molecular weight metabolites, serum proteins etc and air-dried. Cell growth was measured by staining with sulforhodamine B dye (Skehan et al., 1990). The adsorbed dye was dissolved in Tris-Buffer ([…], 0.01 M, pH 10.4) and plates were gently stirred for 5 minutes on a mechanical stirrer. The optical density was recorded on ELISA reader at 540 nm.
(§4) The cell growth was calculated by subtracting mean OD value of respective blank from the mean OD value of experimental set. Percent growth in presence of test material was calculated considering the growth in absence of any test material as 100% and in turn percent growth inhibition in presence of test material will be calculated.

HCT-15 = test: In vitro cytotoxicity (SRB), percentage growth inhibition, HCT-15; assay type: cell-based, human; conditions: HCT-15 (colon), 48 hours
Experimental: as §1, §2, §3, §4

SiHa = test: In vitro cytotoxicity (SRB), percentage growth inhibition, SiHa; assay type: cell-based, human; conditions: SiHa (cervix), 48 hours
Experimental: as §1, §2, §3, §4

HOP-62 = test: In vitro cytotoxicity (SRB), percentage growth inhibition, HOP-62; assay type: cell-based, human; conditions: HOP-62 (lung), 48 hours
Experimental: as §1, §2, §3, §4

HT-29 = test: In vitro cytotoxicity (SRB), percentage growth inhibition, HT-29; assay type: cell-based, human; conditions: HT-29 (colon), 48 hours
Experimental: as §1, §2, §3, §4

Row | Structure (SMILES) | Induced […]Tm ° C. after incubation at 37° C. 0 h (CT-DNA) [°C] | Induced […]Tm ° C. after incubation at 37° C. 18 h (CT-DNA) [°C] | percentage growth inhibition A-549 (A-549; 10^−4 mol/L) [%] | percentage growth inhibition HCT-15 (HCT-15; 10^−5 mol/L) [%] | percentage growth inhibition HCT-15 (HCT-15; 10^−6 mol/L) [%] | percentage growth inhibition SiHa (SiHa; 10^−5 mol/L) [%] | percentage growth inhibition SiHa (SiHa; 10^−6 mol/L) [%] | percentage growth inhibition HOP-62 (HOP-62; 10^−5 mol/L) [%] | percentage growth inhibition HOP-62 (HOP-62; 10^−6 mol/L) [%] | percentage growth inhibition HT-29 (HT-29; 10^−4 mol/L) [%] | percentage growth inhibition HT-29 (HT-29; 10^−5 mol/L) [%] | percentage growth inhibition HT-29 (HT-29; 10^−6 mol/L) [%] | percentage growth inhibition SiHa (SiHa; 10^−4 mol/L) [%] | percentage growth inhibition A-549 (A-549; 10^−5 mol/L) [%] | percentage growth inhibition A-549 (A-549; 10^−6 mol/L) [%] | percentage growth inhibition HOP-62 (HOP-62; 10^−4 mol/L) [%]
1 | COc1cc2c(cc1O)N=CC1CCCN1C2=O (centres unmarked) [DC-81, reference compound] | 0.3 | 0.7 |  |  |  |  |  |  |  |  |  |  |  |  |  | 
2 | COc1cc2c(cc1OCCN1CCN(CCN3C(=O)c4cccc5cccc(c45)C3=O)CC1)N=C[C@@H]1CCCN1C2=O [VIIIa, 7-Methoxy-8-{2-[4-[2-(1,3-dioxo-benz[de]isoquinolin-2-yl)ethyl]piperazin-1-yl]ethyl}-oxy-(11aS)-1,2,3,11a tetrahydro-5H-pyrrolo[2,1-c][1,4]benzodiazepin-5-one] | 21.9 | 22.7 |  |  |  |  |  |  |  |  |  |  |  |  |  | 
3 | COc1cc2c(cc1OCCCN1CCN(CCN3C(=O)c4cccc5cccc(c45)C3=O)CC1)N=C[C@@H]1CCCN1C2=O [VIIIb, 7-Methoxy-8-{3-[4-[2-(1,3-dioxo-benz[de]isoquinolin-2-yl)ethyl]piperazin-1-yl]propyl}-oxy-(11aS)-1,2,3,11a tetrahydro-5H-pyrrolo[2,1-c][1,4]benzodiazepin-5-one] | 25.8 | 26.7 | 88 | 59 | 58 | 44 | 54 | 86 | 72 | 88 | 85 | 91 |  |  |  | 
4 | COc1cc2c(cc1OCCCCN1CCN(CCN3C(=O)c4cccc5cccc(c45)C3=O)CC1)N=C[C@@H]1CCCN1C2=O [VIIIc, 7-Methoxy-8-{4-[4-[2-(1,3-dioxo-benz[de]isoquinolin-2-yl)ethyl]piperazin-1-yl]butyl}-oxy-(11aS)-1,2,3,11a tetrahydro-5H-pyrrolo[2,1-c][1,4]benzodiazepin-5-one] | 23.4 | 24.2 | 95 | 69 | 60 | 39 |  | 93 | 86 | 94 | 86 | 80 | 56 |  |  | 
5 | COc1cc2c(cc1OCCCN1CCN(CCCN3C(=O)c4cccc5cccc(c45)C3=O)CC1)N=C[C@@H]1CCCN1C2=O [VIIId, 7-Methoxy-8-{3-[4-[3-(1,3-dioxo-benz[de]isoquinolin-2-yl)propyl]piperazin-1-yl]propyl}-oxy-(11aS)-1,2,3,11a tetrahydro-5H-pyrrolo[2,1-c][1,4]benzodiazepin-5-one] | 13.1 | 14.3 | 95 |  |  | 65 | 31 |  |  | 95 | 62 | 63 | 85 | 30 | 51 | 78
6 | COc1cc2c(cc1OCCCCN1CCN(CCCCN3C(=O)c4cccc5cccc(c45)C3=O)CC1)N=C[C@@H]1CCCN1C2=O [VIIIe, 7-Methoxy-8-{4-[4-[4-(1,3-dioxo-benz[de]isoquinolin-2-yl)butyl]piperazin-1-yl]butyl}-oxy-(11aS)-1,2,3,11a tetrahydro-5H-pyrrolo[2,1-c][1,4]benzodiazepin-5-one] | 20.9 | 21.7 | 93 | 62 | 59 | 40 | 44 | 93 | 80 | 92 | 78 | 67 | 42 |  |  | 
